Assay [1] has as its target T1, S. aureus MRS (Staphylococcus aureus, UniProt Q5HII6).
T1 construct: made in house
Briefly: Enzyme inhibition (S. aureus MRS), aminoacylation assay. The assay is classed as biochemical. How it is done:
1. Enzyme Inhibition (S. aureus MRS)—Aminoacylation Assay
Compounds of the present invention may be assayed for their ability to inhibit the enzyme methionyl tRNA synthetase (MRS), using recombinant S. aureus MRS, as follows:
The reaction is started by adding 20 μl appropriately diluted pure enzyme (pre-incubated with inhibitor) to 25 μl reaction mix for 10 min at room temperature. The reaction is terminated by the addition of 100 μl 5% trichloroacetic acid, 10% glycerol. The TCA precipitate is harvested onto dry Unifilter GFC plates using a Packard Filtermate Cell Harvester. The filters are washed with 4×200 μl of 50% industrial methylated spirit, before drying. 30 μl of Microscint 20 is added to each well and plates are counted on a TopCount. (Packard 96 well counter).
Mixed E. coli MRE 600 tRNA and ATP were purchased from Boehringer-Mannheim, L-[^35 S] methionine from Amersham and other reagents from Sigma.
Pure recombinant S. aureus MRS (EP application number 97300317.1, SmithKline Beecham) was obtained using standard purification procedures. The enzyme is diluted in Dilution Buffer which consists of 10 mM Tris/Cl, 2 mM DTT pH 7.9.

The subject of assay [2] is E. faecalis. Kind of assay: Antibacterial activity, standard MIC assay modified by inclusion of cyclodextrin. The class given is cell-based. As to conditions: Enterococcus faecalis; some strains of E. faecalis. How it is done: (§1) Compounds of the present invention were assayed for antibacterial activity against a range of pathogenic organisms (strains of S aureus, Spneumoniae, Efaecalis, H influenzae and M catarrhalis) in a standard MIC assay modified by the inclusion of cyclodextrin, to assist with solubility.

The test system of assay [3] is M Catarrhalis. Described as above. As to conditions: some strains of M Catarrhalis. The class given is cell-based. How it is done: as §1
Assay [4] has as its system S. aureus. Described as above. As to conditions: Staphylococcus aureus; some strains of S. aureus. The class given is cell-based. On the procedure: as §1
Assay [5] relates to S. pneumoniae. The description is as above. The assay is classed as cell-based. As to conditions: Streptococcus pneumoniae; some strains of S. pneumoniae. On the procedure: as §1
Assay [6] has as its system H. influenzae. The assay is described as above. The assay is classed as cell-based. How it is done:
as §1

The structures appear in SMILES notation. Some results are limits rather than exact numbers.

Results on 2 compounds are retold here after patent publication US20060287360A1, “Novel compounds” (REPLIDYNE, INC., priority 2003, published 2006).

T1 sequence (Q5HII6 whole entry): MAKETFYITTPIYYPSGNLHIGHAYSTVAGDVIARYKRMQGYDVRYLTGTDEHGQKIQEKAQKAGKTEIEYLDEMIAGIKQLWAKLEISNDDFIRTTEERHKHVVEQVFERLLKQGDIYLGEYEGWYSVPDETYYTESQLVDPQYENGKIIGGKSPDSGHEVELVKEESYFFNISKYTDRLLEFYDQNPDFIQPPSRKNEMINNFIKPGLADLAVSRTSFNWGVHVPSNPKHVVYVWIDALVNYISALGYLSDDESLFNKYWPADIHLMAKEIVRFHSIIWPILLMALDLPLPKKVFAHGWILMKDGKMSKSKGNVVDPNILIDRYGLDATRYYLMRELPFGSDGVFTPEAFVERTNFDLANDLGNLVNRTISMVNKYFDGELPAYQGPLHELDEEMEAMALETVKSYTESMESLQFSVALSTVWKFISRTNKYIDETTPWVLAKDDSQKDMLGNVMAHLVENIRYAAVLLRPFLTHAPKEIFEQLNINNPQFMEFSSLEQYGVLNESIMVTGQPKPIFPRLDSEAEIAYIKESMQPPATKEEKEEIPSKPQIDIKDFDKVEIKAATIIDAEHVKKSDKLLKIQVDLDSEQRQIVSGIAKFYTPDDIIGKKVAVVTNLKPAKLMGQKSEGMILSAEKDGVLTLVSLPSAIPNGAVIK

Usually IC50 stands for the midpoint of a concentration-inhibition curve. High values mean a need for much substance, low ones inhibition by little substance. What is called MIC is the lowest concentration that inhibits growth of the organism. Lower therefore signals greater potency. Take `COc1cc(CNCCCNc2nn3nccc3[nH]2)c2[nH]cc(Cl)c2c1.Cl.Cl` [Example 1, 2-[3-(3-Chloro-5-methoxy-1H-indol-7-ylmethylamino)propylamino]-1H-pyrazolo[1,5-b][1,2,4]triazole dihydrochloride]: the IC50 in assay [1] is below 10 nM. The MIC in assay [2], in assay [3], in assay [4] and in assay [5] was below 32 µg/mL throughout.

Compound `Cc1c(CNCCCNc2nn3nccc3[nH]2)sc(Br)c1Br.Cl.Cl` [Example 2, 2-[3-(4,5-Dibromo-3-methylthien-2-ylmethylamino)propylamino]-1H-pyrazolo[1,5-b][1,2,4]triazole dihydrochloride] had a concentration for half-maximal inhibition (IC50) in assay [1] below 10 nM. The “antibacterial activity against H. influenzae” value in assay [6] is on record as “active”.
